From patent US11117900B2 (Vertex Pharmaceuticals Incorporated, priority 2012, dated 2021)

These compounds were tested on HCT116 colorectal cancer cells (assay: Cisplatin sensitization assay (96 h MTS cell viability)). Settings: Cisplatin sensitization value.
Format: cell-based
Summary of the method: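 The MTS viability read, after 1 h with reagent, followed 96 h of co-treatment at 37° C. in 5% CO2. Both compound and cisplatin were titrated 2-fold from a 10 μM top final concentration in a complete concentration matrix on HCT116 cells. Scores +++/++/+ reflect cisplatin sensitization value ranges.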
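Also: compound concentration needed to lower the IC50 of Cisplatin alone by a set fold.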

Compound	Cisplatin Sensitization Assay
CN1CCN(C(=O)N2CCC(c3ccncc3NC(=O)c3c(N)nn4cc(F)cnc34)CC2)CC1 [I-C-17, 2-amino-6-fluoro-N-(4-(1-(4-methylpiperazine-1-carbonyl)piperidin-4-yl)pyridin-3-yl)pyrazolo[1,5-a]pyrimidine-3-carboxamide]	++ (Compounds with a Cisplatin sensitization value >0.02 μM but <0.2 μM are marked with “++.”)
CO[C@@H]1CCN(C(=O)C2CCN(c3ccncc3NC(=O)c3c(N)nn4cc(F)cnc34)CC2)C1 [I-G-93, (R)-2-amino-6-fluoro-N-(4-(4-(3-methoxypyrrolidine-1-carbonyl)piperidin-1-yl)pyridin-3-yl)pyrazolo[1,5-a]pyrimidine-3-carboxamide]	+++ (Compounds with a Cisplatin sensitization value of <0.02 μM are marked with “+++.”)
Nc1nn2cc(Cl)cnc2c1C(=O)Nc1cnccc1N1CCN(CC(F)(F)F)CC1 [I-N-67, 2-amino-6-chloro-N-(4-(4-(2,2,2-trifluoroethyl)piperazin-1-yl)pyridin-3-yl)pyrazolo[1,5-a]pyrimidine-3-carboxamide]	+++ (Compounds with a Cisplatin sensitization value of <0.02 μM are marked with “+++.”)
Nc1nn2cc(Cl)cnc2c1C(=O)Nc1cnccc1N1CCC(N2CC[C@H](F)C2)CC1 [I-N-103, (S)-2-amino-6-chloro-N-(4-(4-(3-fluoropyrrolidin-1-yl)piperidin-1-yl)pyridin-3-yl)pyrazolo[1,5-a]pyrimidine-3-carboxamide]	+++ (Compounds with a Cisplatin sensitization value of <0.02 μM are marked with “+++.”)
Cn1ccc(-c2ccncc2NC(=O)c2c(N)nn3cc(F)cnc23)n1 [I-C-68, 2-amino-6-fluoro-N-(4-(1-methyl-1H-pyrazol-3-yl)pyridin-3-yl)pyrazolo[1,5-a]pyrimidine-3-carboxamide]	+ (Compounds with a Cisplatin sensitization value >0.2 μM but <5 μM are marked with “+.”)
Nc1nn2cc(F)cnc2c1C(=O)Nc1cncc(Cl)c1N1CCNCC1 [I-N-126, 2-amino-N-(5-chloro-4-(piperazin-1-yl)pyridin-3-yl)-6-fluoropyrazolo[1,5-a]pyrimidine-3-carboxamide]	+++ (Compounds with a Cisplatin sensitization value of <0.02 μM are marked with “+++.”)
Nc1nn2cc(F)cnc2c1C(=O)Nc1cncc(Cl)c1N1CCCC1 [I-N-281, 2-amino-N-(5-chloro-4-(pyrrolidin-1-yl)pyridin-3-yl)-6-fluoropyrazolo[1,5-a]pyrimidine-3-carboxamide]	+++ (Compounds with a Cisplatin sensitization value of <0.02 μM are marked with “+++.”)
Cc1nn(C)cc1-c1ccncc1NC(=O)c1c(N)nn2cc(F)cnc12 [I-C-63, 2-amino-N-(4-(1,3-dimethyl-1H-pyrazol-4-yl)pyridin-3-yl)-6-fluoropyrazolo[1,5-a]pyrimidine-3-carboxamide]	+++ (Compounds with a Cisplatin sensitization value of <0.02 μM are marked with “+++.”)
Cc1ncn(-c2ccncc2NC(=O)c2c(N)nn3cc(F)cnc23)c1C [I-N-269, 2-amino-N-(4-(4,5-dimethyl-1H-imidazol-1-yl)pyridin-3-yl)-6-fluoropyrazolo[1,5-a]pyrimidine-3-carboxamide]	++ (Compounds with a Cisplatin sensitization value >0.02 μM but <0.2 μM are marked with “++.”)
Nc1nn2cc(F)cnc2c1C(=O)Nc1cnccc1N1CCN2CCOC[C@@H]2C1 [I-N-115, (S)-2-amino-6-fluoro-N-(4-(hexahydropyrazino[2,1-c][1,4]oxazin-8(1H)-yl)pyridin-3-yl)pyrazolo[1,5-a]pyrimidine-3-carboxamide]	+++ (Compounds with a Cisplatin sensitization value of <0.02 μM are marked with “+++.”)
Cc1nc(C(=O)N2CCN(C)CC2)ccc1-c1ccncc1NC(=O)c1c(N)nn2cc(F)cnc12 [I-C-39, 2-amino-6-fluoro-N-(2-methyl-6-(4-methylpiperazine-1-carbonyl)-[3,4′-bipyridin]-3′-yl)pyrazolo[1,5-a]pyrimidine-3-carboxamide]	+++ (Compounds with a Cisplatin sensitization value of <0.02 μM are marked with “+++.”)
COCCN1CCN(c2ccncc2NC(=O)c2c(N)nn3cc(Cl)cnc23)CC1 [I-N-60, 2-amino-6-chloro-N-(4-(4-(2-methoxyethyl)piperazin-1-yl)pyridin-3-yl)pyrazolo[1,5-a]pyrimidine-3-carboxamide]	+++ (Compounds with a Cisplatin sensitization value of <0.02 μM are marked with “+++.”)
Nc1nn2cc(Cl)cnc2c1C(=O)Nc1cnccc1N1CC[S+]([O-])CC1 [I-N-68, 2-amino-6-chloro-N-(4-(1-oxidothiomorpholino)pyridin-3-yl)pyrazolo[1,5-a]pyrimidine-3-carboxamide]	+++ (Compounds with a Cisplatin sensitization value of <0.02 μM are marked with “+++.”)
CCC(C#N)c1cnc2c(C(=O)Nc3cnccc3OC)c(N)nn2c1 (stereo not drawn) [I-O-20, 2-amino-6-(1-cyanopropyl)-N-(4-methoxypyridin-3-yl)pyrazolo[1,5-a]pyrimidine-3-carboxamide]	++ (Compounds with a Cisplatin sensitization value >0.02 μM but <0.2 μM are marked with “++.”)
CS(=O)(=O)C1CCN(c2c(Cl)cncc2NC(=O)c2c(N)nn3cc(F)cnc23)C1 (stereo not drawn) [I-N-287, 2-amino-N-(5-chloro-4-(3-(methylsulfonyl)pyrrolidin-1-yl)pyridin-3-yl)-6-fluoropyrazolo[1,5-a]pyrimidine-3-carboxamide]	+++ (Compounds with a Cisplatin sensitization value of <0.02 μM are marked with “+++.”)
Nc1nn2cc(F)cnc2c1C(=O)Nc1cnccc1-c1ccc(C(=O)N2CCN3CCC2CC3)cc1 [I-C-48, N-(4-(4-(1,4-diazabicyclo[3.2.2]nonane-4-carbonyl)phenyl)pyridin-3-yl)-2-amino-6-fluoropyrazolo[1,5-a]pyrimidine-3-carboxamide]	+++ (Compounds with a Cisplatin sensitization value of <0.02 μM are marked with “+++.”)
CN(C)CCc1cnn(-c2ccncc2NC(=O)c2c(N)nn3cc(F)cnc23)c1 [I-N-9, 2-amino-N-(4-(4-(2-(dimethylamino)ethyl)-1H-pyrazol-1-yl)pyridin-3-yl)-6-fluoropyrazolo[1,5-a]pyrimidine-3-carboxamide]	+ (Compounds with a Cisplatin sensitization value >0.2 μM but <5 μM are marked with “+.”)
CN1CCC(C(=O)N2CCN(c3c(F)cncc3NC(=O)c3c(N)nn4cc(F)cnc34)CC2)C1 (stereo not drawn) [I-N-156, 2-amino-6-fluoro-N-(5-fluoro-4-(4-(1-methylpyrrolidine-3-carbonyl)piperazin-1-yl)pyridin-3-yl)pyrazolo[1,5-a]pyrimidine-3-carboxamide]	+++ (Compounds with a Cisplatin sensitization value of <0.02 μM are marked with “+++.”)
CNC1CCN(c2ccncc2NC(=O)c2c(N)nn3cc(Cl)cnc23)CC1 [I-N-87, 2-amino-6-chloro-N-(4-(4-(methylamino)piperidin-1-yl)pyridin-3-yl)pyrazolo[1,5-a]pyrimidine-3-carboxamide]	++ (Compounds with a Cisplatin sensitization value >0.02 μM but <0.2 μM are marked with “++.”)
Nc1nn2cc(F)cnc2c1C(=O)Nc1cnccc1N1CCN(C2CCOC2)CC1 (racemic) [I-N-19, (R,S)-2-amino-6-fluoro-N-(4-(4-(tetrahydrofuran-3-yl)piperazin-1-yl)pyridin-3-yl)pyrazolo[1,5-a]pyrimidine-3-carboxamide]	+++ (Compounds with a Cisplatin sensitization value of <0.02 μM are marked with “+++.”)
Nc1nn2cc(Cl)cnc2c1C(=O)Nc1cnccc1O[C@H]1C[C@@]2(CCN2)C1 [I-O-79]	++ (Compounds with a Cisplatin sensitization value >0.02 μM but <0.2 μM are marked with “++.”)
Nc1nn2cc(F)cnc2c1C(=O)Nc1cnccc1N1CCC(C(=O)N2CC(F)C2)CC1 [I-G-82, 2-amino-6-fluoro-N-(4-(4-(3-fluoroazetidine-1-carbonyl)piperidin-1-yl)pyridin-3-yl)pyrazolo[1,5-a]pyrimidine-3-carboxamide]	+++ (Compounds with a Cisplatin sensitization value of <0.02 μM are marked with “+++.”)
Nc1nn2cc(F)cnc2c1C(=O)Nc1cnccc1N1CCC(c2ncon2)CC1 [I-N-241, N-(4-(4-(1,2,4-oxadiazol-3-yl)piperidin-1-yl)pyridin-3-yl)-2-amino-6-fluoropyrazolo[1,5-a]pyrimidine-3-carboxamide]	+++ (Compounds with a Cisplatin sensitization value of <0.02 μM are marked with “+++.”)
CN1CCC(S(=O)(=O)N2CCN(c3ccncc3NC(=O)c3c(N)nn4cc(F)cnc34)CC2)CC1 [I-N-188, 2-amino-6-fluoro-N-(4-(4-((1-methylpiperidin-4-yl)sulfonyl)piperazin-1-yl)pyridin-3-yl)pyrazolo[1,5-a]pyrimidine-3-carboxamide]	+++ (Compounds with a Cisplatin sensitization value of <0.02 μM are marked with “+++.”)
CCOc1ccncc1NC(=O)c1c(N)nn2cc(F)cnc12 [I-O-14, 2-amino-N-(4-ethoxypyridin-3-yl)-6-fluoropyrazolo[1,5-a]pyrimidine-3-carboxamide]	+++ (Compounds with a Cisplatin sensitization value of <0.02 μM are marked with “+++.”)
Cn1nncc1-c1ccncc1NC(=O)c1c(N)nn2cc(F)cnc12 [I-C-72, 2-amino-6-fluoro-N-(4-(1-methyl-1H-1,2,3-triazol-5-yl)pyridin-3-yl)pyrazolo[1,5-a]pyrimidine-3-carboxamide]	+++ (Compounds with a Cisplatin sensitization value of <0.02 μM are marked with “+++.”)
Nc1nn2cc(F)cnc2c1C(=O)Nc1cncc(F)c1N1CCC(CN2CCOCC2)CC1 [I-N-149, 2-amino-6-fluoro-N-(5-fluoro-4-(4-(morpholinomethyl)piperidin-1-yl)pyridin-3-yl)pyrazolo[1,5-a]pyrimidine-3-carboxamide]	+++ (Compounds with a Cisplatin sensitization value of <0.02 μM are marked with “+++.”)
